Our source for the half-life and microsomal CLint values is ChEMBL document CHEMBL5357025, “Perceptual Modifying Compounds and Their Potential Therapeutic Applications in Neuropsychiatric Disorders” (ACS Med Chem Lett, 2024).

A short description of data set [1]: Metabolic stability in pooled human liver microsomes assessed as half-life at 1 uM preincubated with compound followed by NADPH addition and measured upto 45 mins by LC-MS/MS analysis. The data set is classed as ADME, Microsome.
Data set [2] in a line: Metabolic stability in pooled human liver microsomes assessed as intrinsic clearance at 1 uM preincubated with compound followed by NADPH addition and measured upto 45 mins by LC-MS/MS analysis. It counts as ADME, Microsome. To be noted: read-out: CLH. In general terms: Liver microsomes are a subcellular fraction often used to study metabolism.

Broadly, the half-life is the time in which the quantity being followed falls by half.

With `[2H]C([2H])([2H])N1C[C@H](C(=O)N(C([2H])([2H])C([2H])([2H])[2H])C([2H])([2H])C([2H])([2H])[2H])C=C2c3cccc4[nH]c(Br)c(c34)C[C@H]21`, the half-life at 1 µM in data set [1] was determined as 35.7 min. Moreover, the microsomal CLint at 1 µM in data set [2] was 38.8 µL/min/mg.
As for `[2H]c1c([2H])c2c3c(c(Br)[nH]c3c1[2H])C[C@@H]1C2=C[C@@H](C(=O)N(CC)CC)CN1C`, the half-life at 1 µM in data set [1] came to 26.3 min. For the same compound, the microsomal CLint at 1 µM in data set [2] came out at 52.6 µL/min/mg.
Take `[2H]c1[nH]c2cccc3c2c1C[C@@H]1C3=C[C@@H](C(=O)N(CC)CC)CN1C`: the half-life at 1 µM in data set [1] came out at 77.7 min. Besides, the microsomal CLint at 1 µM in data set [2] was 17.8 µL/min/mg.
The matching figures for `[2H]C([2H])([2H])N1C[C@H](C(=O)N(CC)CC)C=C2c3cccc4[nH]c(Br)c(c34)C[C@H]21`: 28.1 min and 49.4 µL/min/mg.
The matching figures for `[2H]C([2H])([2H])C([2H])([2H])N(C(=O)[C@@H]1C=C2c3cccc4[nH]c(Br)c(c34)C[C@H]2N(C)C1)C([2H])([2H])C([2H])([2H])[2H]`: 31.1 min and 44.6 µL/min/mg.
The corresponding values for `[2H]C([2H])([2H])C([2H])([2H])N(C(=O)[C@@H]1C=C2c3cccc4[nH]cc(c34)C[C@H]2N(C)C1)C([2H])([2H])C([2H])([2H])[2H]` are 80.8 min and 17.2 µL/min/mg.
As for `CCN(CC)C(=O)[C@@H]1C=C2c3cccc4[nH]c(Br)c(c34)C[C@H]2N(C)C1`, in data set [1], the half-life at 1 µM came to 24.6 min. In addition, the microsomal CLint at 1 µM in data set [2] worked out at 56.3 µL/min/mg.
In the case of `[2H]c1[nH]c2c([2H])c([2H])c([2H])c3c2c1C[C@@H]1C3=C[C@@H](C(=O)N(CC)CC)CN1C`, the half-life at 1 µM in data set [1] came to 82.8 min. For the same compound, the microsomal CLint at 1 µM in data set [2] is 16.7 µL/min/mg.
